Measured values reported in patent US11464784B2, “Inhibition of aminocylase 3 (AA3) in the treatment of cancer” (THE REGENTS OF THE UNIVERSITY OF CALIFORNIA, priority 2017, dated 2022).

T1: mAA3 (Mus musculus, UniProt Q91XE4)
T1 sequence (Q91XE4 1-318): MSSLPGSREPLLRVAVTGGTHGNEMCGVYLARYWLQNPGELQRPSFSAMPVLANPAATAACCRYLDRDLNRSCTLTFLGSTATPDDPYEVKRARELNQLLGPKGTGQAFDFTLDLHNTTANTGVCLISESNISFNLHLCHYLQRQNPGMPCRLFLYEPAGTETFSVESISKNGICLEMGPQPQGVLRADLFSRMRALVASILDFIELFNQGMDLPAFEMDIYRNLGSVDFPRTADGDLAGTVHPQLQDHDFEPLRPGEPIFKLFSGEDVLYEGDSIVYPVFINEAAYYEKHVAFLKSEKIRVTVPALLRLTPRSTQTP


How the values were obtained:
[1] = test system: colon cancer cell lines COLO 205, HCT 116, LS 513; assay: MTT cell viability, colon cancer cell lines; type: cell-based, human
Source text: (§1) Human colon cancer cell lines COLO 205, HCT 116, LS 513 (all ATCC), primary colon epithelial cells (Cell Biologics), pancreatic cancer cell lines PANC-1, MIA PaCa-2, BxPC-3, and normal pancreatic duct epithelial cells (UCLA collection) were used in experiments. COLO 205, LS 513, BxPC-3 cells were cultivated in RPMI 1640 medium with 10% FBS, HCT 116 cells were cultivated in McCoy's 5A medium with 10% FBS, PANC-1 and MIA PaCa-2 cell lines were cultivated in DMEM medium with 10% FBS, and normal colon and pancreatic cells were maintained in Human Epithelial Cell Medium (Cell Biologics).
(§2) HCC cell lines HepG2, HuH7, primary hepatocytes, colon cell lines COLO 205, HCT 116, LS 513, primary colon epithelial cells, pancreatic cancer cell lines PANC-1, MIA PaCa-2, BxPC-3, and normal pancreatic duct epithelial cells were seeded in 96-well plates at a density 10,000 cells per well in complete medium. Next day medium was changed to medium containing 1% FBS and an AA3 inhibitor (3-100 μM). 24 h later cell viability was determined using the MTT (3-(4,5-dimethylthiazol-2-yl)-2,5-diphenyltetrazolium bromide) cell viability assay. Cells were incubated during 4 h at 37° C. with 150 μl fresh media containing 0.5 mg/ml MTT. Then 50 μl of 20% SDS in 25 mM HCl was added to each well, incubated for 4 h and the optical density at 570 nm was measured on a VMax Kinetic Microplate Reader (Molecular Devices, Sunnyvale, Calif.).

[2] = test system: pancreatic cancer cell lines PANC-1, MIA PaCa-2, BxPC-3; assay: MTT cell viability, pancreatic cancer cell lines; type: cell-based, human; conditions: for efficiency for pancreatic cell lines: lines expressing either wild type (wt) or mutant (mut) KRas
Source text: as §1, §2

[3] = test system: normal pancreatic duct epithelial cells; assay: MTT cell viability, normal pancreatic cells; type: cell-based, human; conditions: for toxicity for normal vs cancer cell lines: pancreatic (FIG. 25)
Source text: as §1, §2

HepG2 cells [4] = assay: Levels of FC and NAFC in HepG2 cells (LC/MS); type: cell-based, human; conditions: for FC level / level of NAFC: HepG2, 10-20 μM inhibitor, 24 h, vs untreated; for [FC]/[NAFC] ratio: HepG2 treated cells (untreated ~8.4)
Method: (§3) HUH7 and HepG2 cells were seeded in 6-well plates at a density 250,000 cells per well in complete medium. Next day the medium was changed to 2 ml DMEM with 1% FBS containing a 10-20 μM AA3 inhibitor. After 24 h incubation, the medium was collected, concentrated 10 times on a vacuum concentrator; 10 μl aliquots were used for quantitation by LC/MS and LC/MS/MS-MRM. The cells were trypsinized, washed in PBS and centrifuged at 2,000 g for 10 min. Then cell pellet was lysed on ice in 50 μl of 20 mM Tris-HCl, pH 7.5, containing 1% dodecyl maltoside (DDM) and 1× protease inhibitor cocktail (Sigma/Aldrich). After centrifugation (14,000 g, 10 min) the supernatants were diluted 4 times with methanol and centrifuged (14,000 g, 10 min), then the supernatants were diluted 10 times with water, and 10 μl aliquots were used for quantitation by LC/MS and LC/MS/MS-MRM as described above expect electrospray ionization was used with an Agilent 6460 triple quadrupole mass spectrometer.

HuH7 cells [5] = assay: Levels of FC and NAFC in HuH7 cells (LC/MS); type: cell-based, human; conditions: for FC level decreased by / level of NAFC: HuH7, 10-20 μM inhibitor, 24 h, vs untreated; for [FC]/[NAFC] ratio: HuH7 treated cells (untreated ~2.8)
Method: as §3

[6] = test system: membrane associated Ras in HepG2 cells; assay: Membrane associated Ras in HepG2 cells (immunoblot); type: cell-based, human; conditions: HepG2, 24 h
Method: Cultured HCC cells and primary hepatocytes were washed with PBS buffer, treated with 0.25% Trypsin-EDTA solution (Corning) and precipitated at 1,000 rpm for 5 min. For protein extraction, HCC cells were lysed on ice by vortexing every 5 min for 30 min in RIPA buffer containing 20 mM Tris-HCl (pH 7.5), 150 mM NaCl, 5 mM EDTA, 1% Triton X-100, 0.5% sodium deoxycholate, 0.1% SDS, and 1× Halt protease inhibitor cocktail (Thermo Scientific, Waltham, Mass.). Prenylated Ras other membrane associated proteins were extracted from HCC cells using a Mem-PER Plus Kit (Thermo Scientific) according to the manufacturer's protocol. […]
HepG2 cells were seeded in 6-well plates at a density 250,000 cells per well. […] 24 h later cells were collected, washed with PBS and the membrane associated Ras proteins were extracted as described above, resolved on SDS-PAGE, and detected with the anti-Ras antibody (EMD Millipore).
To study the effect of AA3 suppression on Ras membrane association, HepG2 and HuH7 cells seeded onto 6-well plates at the same density, were transfected with 50 pmol ACY3 (AA3) Silencer Select Pre-designed siRNA (Invitrogen, Grand Island, N.Y.) using the Lipofectamine RNAiMAX reagent (Invitrogen) following the manufacturer protocol. […] After 48 h incubation, membrane associated proteins were extracted and membrane associated Ras was determined by immunoblotting as described above.

HepG2 cells [7] = assay: MTT cell viability, HepG2; type: cell-based, human; conditions: HepG2, within the micromolar range, 24 h
Method: as §2
(§4) To study the effect of AA3 silencing, HepG2 and HUH7 cells seeded in 96-well plates were transfected with 2 pmol AA3 siRNA using the Lipofectamine RNAiMAX reagent as per the manufacturer protocol. Cell viability was measured in the MTT assay 48 h later as described.

HuH7 cells [8] = assay: MTT cell viability, HuH7; type: cell-based, human; conditions: HuH7, within the micromolar range, 24 h
Method: as §2, §4

[9] = test system: normal primary hepatocytes; assay: MTT cell viability, normal primary hepatocytes; type: cell-based; conditions: inhibitor 10: 0-50 μM range; inhibitor 11: in comparison with HCC cell lines
Method: as §2, §4

[10] = test system: primary colon epithelial cells; assay: MTT cell viability, normal colon cells; type: cell-based, human; conditions: colon (FIG. 24)
Source text: as §1
as §2, with “Cells were incubated during 4 h at 37° C. with 150 μl fresh media containing 0.5 mg/ml MTT.” left out

mAA3 = target: T1, mAA3; conditions: substrate of mAA3; cited from earlier work
[11] = substrate: CC(=O)C/C(C)=C/CC/C(C)=C/CC/C(C)=C/CC/C(C)=C/CN[C@@H](CS)C(=O)O; assay: Deacetylation of NAFC and NAGGC by human AA3; type: biochemical; conditions: other: substrate of human AA3; pH 7.5
Method: (§5) AA3 activity was measured using a previously described fluorescence assay. Human purified AA3 (1 μg), rat AA1 (1 μg) or immunoaffinity purified AA3 from HepG2 and HuH7 cells were assayed for 30 min at […] in […] of 50 mM sodium phosphate buffer, pH 7.5, containing 1 mM NAFC or NAGGC both from Cayman Chemical (Ann Arbor, Mich.). Then 100 μl of the reaction mixture was added to 1 ml of 50 mM sodium phosphate buffer containing 1 mM fluorescamine, and fluorescence was measured (390 nm excitation, 475 nm emission).
(§6) To study the deacetylation of NAFC and NAGGC mediated by AA3, 50 μl aliquots from the reaction assays were injected onto Agilent Eclipse Plus C18 reverse phase HPLC column equilibrated with 0.1% formic acid, and eluted with acetonitrile/0.1% formic acid gradient (0-90%, 20 min). The effluent from the column was passed to an Ionspray ion source connected to a triple quadrupole mass-spectrometer (MS) API III+(PerkinElmer, Boston, Mass.). NAFC and NAGGC (Cayman Chemical) were used for MS calibration.

[12] = substrate: CC(=O)CC(C)=CCCC(C)=CCCC(C)=CCN[C@@H](CS)C(=O)O; assay: Deacetylation of NAFC and NAGGC by human AA3; type: biochemical; conditions: other: substrate of human AA3; pH 7.5
Method: as §5, §6

[13] = lines expressing mutant (mut) KRas
[14] = lines expressing wild type (wt) or mutant (mut) KRas

| Molecule | growth of colon cancer cell lines [1, 13] | toxicity for pancreatic cancer cells [2] | toxicity for pancreatic normal cells [3] | FC level (HepG2 cells [4]) | level of NAFC (HepG2 cells [4]) | [FC]/[NAFC] ratio (HepG2 cells [4]) | FC level decreased by (HuH7 cells [5]) | level of NAFC (HuH7 cells [5]) | [FC]/[NAFC] ratio (HuH7 cells [5]) | level of the membrane associated Ras decreased by, % of control [6] | toxicity (cell viability) (HepG2 cells [7]) | toxicity (cell viability) (HuH7 cells [8]) | toxicity to normal primary hepatocytes [9] | growth of colon cancer cell lines [1, 14] | toxicity for normal vs cancer cell lines [10] | efficiency for pancreatic cell lines [2] | toxicity for normal vs cancer cell lines [3] | further results |
| --- | --- | --- | --- | --- | --- | --- | --- | --- | --- | --- | --- | --- | --- | --- | --- | --- | --- | --- |
| Cc1ccc(N2C(=O)/C(=C/c3cc([N+](=O)[O-])cc(Br)c3O)SC2=S)c(C)c1 [Inhibitor 3, (5Z)-5-(3-Bromo-2-hydroxy-5-nitrobenzylidene)-3-(2,4-dimethylphenyl)-2-thioxo-1,3-thiazolidin-4-one] | suppress growth | toxic | toxic | – | – | – | – | – | – | – | – | – | – | – | – | – | – | – |
| O=c1nc(-c2ccccc2)sc2ccccc12 [Inhibitor 10, 2-Phenyl-4H-1,3-benzothiazin-4-one] | – | toxic | toxic | not significantly changed | significantly increased | ~1.6 | approximately 50% | significantly increased | ~0.85 | ~50% | toxic | toxic | not toxic | suppress growth | significantly less toxic | efficient | significantly less toxic | – |
| COc1ccc(CSc2nc3cc(S(N)(=O)=O)ccc3n2C)cc1F [Inhibitor 11, 2-[(3-Fluoro-4-methoxybenzyl)sulfanyl]-1-methyl-1H-benzimidazole-5-sulfonamide] | suppress growth | toxic | toxic | not significantly changed | significantly increased | ~2.8 | approximately 50% | significantly increased | ~0.9 | ~50% | toxic | toxic | significantly less toxic | – | – | – | – | – |
| Cc1ccc(-n2sc3ccccc3c2=O)cc1 [Inhibitor 21, 2-(4-methylphenyl)-1,2-benzothiazol-3-one] | – | toxic | toxic | – | – | – | – | – | – | – | – | – | – | suppress growth | significantly less toxic | efficient | significantly less toxic | – |
| CC(=O)N[C@@H](CSC(Cl)(Cl)C(F)F)C(=O)O [N-Acetyl-S-(2,2-difluoro-1,1-dichloroethyl)-L-cysteine] | – | – | – | – | – | – | – | – | – | – | – | – | – | – | – | – | – | Vmax, times lower than N-acetyl-S-(2,2-dichloro-1,1-difluoroethyl)-L-cysteine (mAA3): ~30 times; affinity, times higher than N-acetyl-S-(2,2-dichloro-1,1-difluoroethyl)-L-cysteine (mAA3): ~18 times |
| human AA3 (Homo sapiens) (protein, 6His (N); made in house; host or cells: E. coli) MCSLPVPREPLRRVAVTGGTHGNEMSGVYLARHWLHAPAELQRASFSAVPVLANPAATSGCRRYVDHDLNRTFTSSFLNSRPTPDDPYEVTRARELNQLLGPKASGQAFDFVLDLHNTTANMGTCLIAKSSHEVFAMHLCRHLQLQYPELSCQVFLYQRSGEESYNLDSVAKNGLGLELGPQPQGVLRADIFSRMRTLVATVLDFIELFNQGTAFPAFEMEAYRPVGVVDFPRTEAGHLAGTVHPQLQDRDFQPLQPGAPIFQMFSGEDLLYEGESTVYPVFINEAAYYEKGVAFVQTEKFTFTVPAMPALTPAPSPAS | – | – | – | – | – | – | – | – | – | – | – | – | – | – | – | – | – | Km [11]: 0.14 mM; kcat [11]: 7.2 s⁻¹; Km [12]: 0.025 mM; kcat [12]: 2 s⁻¹ |
